In brackets after ≈: the same amount, converted by molar mass. Several values for one entry are separate records, joined by “and”; a condition that tells them apart may be missing. Equal entries are not always repeated. Where two headings read alike, the source gives them in different places.
Tests used:
[1] = In vivo mouse pharmacokinetics; details: for Cmax / Tmax / half-life / AUC(0-t) at 8 h / AUC(0-t): female, mouse, in vivo, 10 mg/kg, NMRI mice; for AUC(0-t) at 8 h: read-out: AUC0–8; for AUC(0-t): read-out: AUC0–8 (converted)
Description: Each compound was dosed as a bolus solution intraperitoneally at 10 mg free base/kg (dose volume, 10 mL/kg; dose vehicles used, 10% DMSO; 40% PEG400; 50% Milli-Q water or 5% DMSO; 40% PEG400; 55% saline) to female HRN (1 only) or NMRI mice (n = 3) or dosed orally by gavage as a solution at 10 mg free base/kg (dose volume, 10 mL/kg; dose vehicle, 10% DMSO; 40% PEG400; 50% Milli-Q water) to female NMRI mice (n = 3). Female NMRI mice were chosen, as these represent the sex and strain used for the stage 1 and stage 2 HAT efficacy models. Blood samples were taken from each mouse at 5 (IP only), 15, and 30 min, 1, 2, 4, 6, and 8 h post dose, mixed with two volumes of distilled water, and stored frozen until UPLC/MS/MS analysis. Pharmacokinetic parameters were derived from noncompartmental analysis of the blood concentration time curve using PK solutions software v 2.0 (Summit Research Services, USA).

[2] = Brain tissue binding by equilibrium dialysis; format: in vitro ADME; details: Sprague-Dawley, brain homogenate; rat (male SD rat); read-out: brain tissue binding (rat), Fu
Description: In brief, a 96-well equilibrium dialysis apparatus was used to determine the free fraction in the brain for the test compound (HT Dialysis LLC, Gales Ferry, CT). Membranes (12–14 kDa A cutoff) were conditioned in deionized water for 60 min, followed by conditioning in 80:20 deionized water:ethanol for 20 min and then rinsed in artificial cerebrospinal fluid (CSF) before use. Mouse brain was removed from the freezer and allowed to thaw on the day of experiment. […] Diluted brain homogenate was spiked with the test compound (10 ug/g), and 150 μL aliquots (n = 6 replicate determinations) loaded into the 96-well equilibrium dialysis plate. Dialysis vs artificial CSF (150 μL) was carried out for 5 h in a temperature controlled incubator at ca. 37 °C (Stuart scientific Ltd., UK) using an orbital microplate shaker at 125 rpm (Stuart scientific Ltd., UK). […] All samples were analyzed by means of UPLC/MS/MS on a Quattro Premier XE mass spectrometer (Waters Corporation, USA). The unbound fraction was determined as the ratio of the peak area in artificial CSF to that in brain, with correction for dilution factor according to eq 1.[42] […] 1 where D = dilution factor in brain homogenate and Fu,apparent is the measured free fraction of diluted brain homogenate.

[3] = Maximum tolerated dose (MTD) studies
[4] = Plasma protein binding by equilibrium dialysis, mouse; format: in vitro ADME; details: read-out: plasma protein binding, Fu (fraction unbound)
Description: (§1) The software package StarDrop by Optibrium was used to calculate physicochemical parameters including log P, molecular weight, and polar surface area (PSA). The aqueous kinetic solubility of the compounds was measured using laser nephelometry as previously described.[40] The plasma protein binding of the compounds was determined by the equilibrium dialysis method.[12]

[5] = Aqueous kinetic solubility by laser nephelometry; format: physicochemical; details: aqueous medium, Table 7
Description: as §1

[6] = system: T. b. brucei GVR35; details: 12.5 mg/kg IP b.i.d. for 5 d from 21 d post infection, majority of mice
Description: For stage 2 of infection, the standard model is T. b. brucei GVR35 in which CNS infection is allowed to develop in female NMRI mice before treatment starts, requiring about 21 d.
These were carried out as previously described[27],[32] at the dose level presented and using the same dose formulation as the pharmacokinetic studies. HRN mice were used under the same infection and monitoring protocol as described for female NMRI mice.

[7] = Mouse brain penetration (brain:blood ratio); details: in vivo, dosed intravenously at 0.5 or 1 mg/kg, levels measured after 5 min, female NMRI mice, read-out: B:B (brain to blood ratio)
Description: Each compound was dosed as a bolus solution intravenously at 0.5 or 1 mg free base/kg (dose volume, 5 mL/kg; dose vehicle, 10% DMSO; 40% PEG400; 50% Milli-Q water) to female NMRI mice (n = 6). At 5 and 30 min following intravenous bolus injection of test compound, mice (n = 3/time point) were placed under terminal anesthesia with isofluorane. A blood sample was taken by cardiac puncture and mixed with two volumes of distilled water, the mice decapitated, and the brain removed. Diluted blood and brains were stored frozen until preparation and analysis by UPLC/MS/MS. For each mouse at each time point, the concentration in brain (ng/g) was divided by the concentration in blood (ng/mL) to give a brain:blood ratio. The mean value obtained was quoted.

[8] = system: panel of receptors, including dopamine, serotonin, histamine, and muscarinic receptors; experiment: NIMH Psychoactive Drug Screening Program (PDSP) receptor panel; format: binding; details: significant inhibition is considered > 50%
Excerpt: However, the observed toxicity prevents further progression of the compounds. To try and identify a possible driver for toxicity, that may then offer an opportunity to design out this unwanted effect, the key compounds were screened against a panel of receptors at the NIMH Psychoactive Drug Screening Program (PDSP).[36],[37] No significant activity against a large panel of receptors, including dopamine, serotonin, histamine, and muscarinic receptors (see Supporting Information) was observed.
S2: Details of receptors screened at the NIMH Psychoactive Drug Screening Program […]
receptors screened. Significant inhibition is considered > 50%. In cases where negative inhibition (-) is seen, this represents a stimulation of binding. The receptors screened were 5- […]
HT7, Alpha1A, Alpha1B, Alpha1D, Alpha2A, Alpha2B, Alpha2C, Beta1, Beta2, Beta3, BZP rat Brain site, D1, D2, D3, D4, D5, DAT, DOR, GABBA, H1, H2, H3, KOR, M1, M2, M3, M4, M5, MOR, NET, PBR, SERT, Sigma1 and Sigma2

[9] = in vitro; details: human, MRC-5 fibroblasts
Description: Proliferation assays using bloodstream form T. brucei brucei and human MRC-5 fibroblasts were conducted using a modification of the cell viability assay as previously reported.[27],[39]
MRC-5 cells (2000 cells per well) were seeded in 200 μL of DMEM, 10% FCS, and allowed to adhere overnight. One microliter of test compound was added to each well on the day of assay initiation.
The final DMSO level was 0.5% in all cases.

With CNC(=O)[C@H]1Cc2ccccc2N1C(=O)Cc1ccc(F)cc1 [Compound 47, (R)-1-(2-(4-Fluorophenyl)acetyl)-N-methylindoline-2-carboxamide] the “higher AUC compared to 1” value ([1]; IP, female NMRI mice) was 1.5–6.5 fold, the Cmax ([1]; IP) was 2300 ng/mL and 7.4 µM and the Tmax ([1]; IP) was 15 min. It also gave a half-life ([1]; IP) of 30 min, an AUC(0-t) at 8 h ([1]; IP) of 9.1 µM·h and an AUC(0-t) ([1]; IP) of 2830 ng·h/mL. For the same molecule, the Cmax ([1]; PO) was 750 ng/mL and 2.4 µM, the Tmax ([1]; PO) was 30 min and the half-life ([1]; PO) was 36 min. The AUC(0-t) at 8 h ([1]; PO) was 3.3 µM·h, the AUC(0-t) ([1]; PO) was 1020 ng·h/mL and the fraction unbound at 5 h, 10 ug/g [2] was 0.43. The tolerability ([3]; 15 mg/kg IP b.i.d., female NMRI mice (47: for 3 days)) was “well tolerated”, the tolerability ([3]; 25 mg/kg after a single dose, female NMRI mice) was “clinical signs of toxicity” and the fraction unbound [4] was 0.59. The solubility [5] was 64 µg/mL (≈ 205 µM), the “relapse with parasitaemia later than vehicle dosed infected mice” value [6] was 6 to 13 days and the Kp at 5 min [7] was 0.9. For the same molecule, the “inhibition against receptors screened” value [8] was “did not show significant inhibitor” and the EC50 at 69 h [9] was greater than 50 µM.

Reference: paper PMC4601051, “Discovery of Indoline-2-carboxamide Derivatives as a New Class of Brain-Penetrant Inhibitors of Trypanosoma brucei” (Journal of Medicinal Chemistry, 2015)
